Reference: patent US8541590B2, “Proteasome inhibitors and processes for their preparation, purification and use” (Cephalon, Inc., priority 2009, dated 2013)

Experiment: Storage stability of boronic ester of Formula X, bulk solid state drug substance (Example 9)
Type: physicochemical
Protocol: Bulk solid state drug substance was put in polyethylene (PE) double bag in high-density polyethylene (HDPE) containers and the containers were stored under three conditions: (a) 4° C., (b) 25° C./60% relative humidity (RH), and (c) 40° C./75% RH.
6-(2S,3R)—N-[(1R)-1-(1,3,6,2-dioxazaborocan-2-yl)-3-methylbutyl}-3-hydroxy-2-{(6-phenylpyridin-2-yl)formamido]butanamide converts to [(1R)-1-[[(2S,3R)-3-Hydroxy-2-[[(6-phenylpyridin-2-yl)carbonyl]amino]-1-oxobutyl]amino]-3-methylbutyl]boronic acid (i.e., Compound 1) as soon as it is in the presence of an aqueous phase. Therefore, HPLC analysis of purity was of the [(1R)-1-[[(2S,3R)-3-Hydroxy-2-[[(6-phenylpyridin-2-yl)carbonyl]amino]-1-oxobutyl]amino]-3-methylbutyl]boronic acid hydrolysis product. Stability was tested at time zero (T0), and after storage for one month (1M), six months (6M) and (except for the 40° C./75% RH conditions) one year (12M).

With “6-(2S,3R)—N-[(1R)-1-(1,3,6,2-dioxazaborocan-2-yl)-3-methylbutyl}-3-hydroxy-2-{(6-phenylpyridin-2-yl)formamido]butanamide [boronic ester of Formula X]” the Appearance (4° C., 1 M) was “White to off-”, the Appearance (4° C., 6 M) was “White to off-” and the Appearance (4° C., 12 M) was “White to off-”. The “Chemical purity (%)” value (4° C./ambient RH, 1 M) was 99.8%, the “Impurity by HPLC (%) RRT = 0.49” value (4° C./ambient RH, 1 M) was 0.06% and the “Impurity by HPLC (%) RRT = 1.18” value (4° C./ambient RH, 1 M) was 0.17%. For the same substance, the “Chemical purity (%)” value (4° C./ambient RH, 6 M) was 99.9%, the “Chemical purity (%)” value (4° C./ambient RH, 12 M) was 99.9% and the “Impurity by HPLC (%) RRT = 1.18” value (4° C./ambient RH, 12 M) was 0.07%. For the same substance, the Appearance (25° C./60% RH, 1 M) was “White to off-”, the “Chemical purity (%)” value (25° C./60% RH, 1 M) was 99.6% and the “Impurity by HPLC (%) RRT = 0.49” value (25° C./60% RH, 1 M) was 0.09%. The “Impurity by HPLC (%) RRT = 1.18” value (25° C./60% RH, 1 M) was 0.32%, the Appearance (25° C./60% RH, 6 M) was “White to off-” and the “Chemical purity (%)” value (25° C./60% RH, 6 M) was 99.8%. The “Impurity by HPLC (%) RRT = 0.49” value (25° C./60% RH, 6 M) was 0.08%, the “Impurity by HPLC (%) RRT = 1.18” value (25° C./60% RH, 6 M) was 0.06% and the Appearance (25° C./60% RH, 12 M) was “White to off-”. For the same substance, the “Chemical purity (%)” value (25° C./60% RH, 12 M) was 99.9%, the “Impurity by HPLC (%) RRT = 0.49” value (25° C./60% RH, 12 M) was 0.07% and the “Impurity by HPLC (%) RRT = 1.18” value (25° C./60% RH, 12 M) was 0.08%. For the same substance, the Appearance (40° C./75% RH, 1 M) was “White to off-”, the “Chemical purity (%)” value (40° C./75% RH, 1 M) was 99.7% and the “Impurity by HPLC (%) RRT = 0.49” value (40° C./75% RH, 1 M) was 0.10%. For the same substance, the “Impurity by HPLC (%) RRT = 1.18” value (40° C./75% RH, 1 M) was 0.18%, the Appearance (40° C./75% RH, 6 M) was “White to off-” and the “Chemical purity (%)” value (40° C./75% RH, 6 M) was 99.8%. For the same substance, the “Impurity by HPLC (%) RRT = 0.49” value (40° C./75% RH, 6 M) was 0.10%, the “Impurity by HPLC (%) RRT = 1.18” value (40° C./75% RH, 6 M) was 0.11% and the Appearance (T0) was “White to off-”. For the same substance, the “Impurity by HPLC (%) RRT = 1.18” value (T0) was 0.50% and the “Chemical purity (%)” value (T0, HPLC of Compound 1 hydrolysis product) was 99.5%.
